Values of other authors, collected in patent US20210395200A1, “SYNTHETIC PROCESSES FOR THE PRODUCTION OF 1-((3S,4R)-4-(2,6-DIFLUORO-4-METHOXYPHENYL)-2-OXOPYRROLIDIN-3-YL)-3-PHENYLUREA” (BRISTOL-MYERS SQUIBB COMPANY, priority 2018, published 2021).

Molecular target: T1, FPR2 (Homo sapiens, UniProt P25090)
T1 sequence (P25090 1-351): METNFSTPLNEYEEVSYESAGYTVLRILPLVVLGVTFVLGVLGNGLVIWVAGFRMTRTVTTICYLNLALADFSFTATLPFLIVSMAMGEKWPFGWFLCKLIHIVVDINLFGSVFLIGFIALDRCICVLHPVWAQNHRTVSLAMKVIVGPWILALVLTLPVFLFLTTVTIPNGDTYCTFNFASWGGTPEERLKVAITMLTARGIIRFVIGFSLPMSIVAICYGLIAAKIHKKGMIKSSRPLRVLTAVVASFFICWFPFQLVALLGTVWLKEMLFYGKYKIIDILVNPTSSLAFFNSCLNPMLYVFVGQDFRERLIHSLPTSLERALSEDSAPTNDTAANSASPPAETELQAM
Details: background statement referring to U.S. Pat. No. 9,822,069

For `COc1cc(F)c([C@@H]2CNC(=O)[C@H]2NC(=O)Nc2ccccc2)c(F)c1` [Compound 1, 1-((3S,4R)-4-(2,6-difluoro-4-methoxyphenyl)-2-oxopyrrolidin-3-yl)-3-phenylurea], the FPR2 agonist activity is given as “robust FPR2 agonist activity”.
